Results from paper PMC11672551, “Cyclic Ruthenium-Peptide Prodrugs Penetrate the Blood–Brain Barrier and Attack Glioblastoma upon Light Activation in Orthotopic Zebrafish Tumor Models” (ACS Central Science, 2024).
Read-outs that look alike come from different tables or passages of the source.

Columns and labels:
U87MG cells [1] = test: Intracellular ROS generation, CellROX Deep Red, flow cytometry; type: cell-based, human; settings: 15 μM, 24 h, green light 515 nm, 13.1 J cm–2, normoxia, n = 2
Procedure: Figure 3 Light activation mechanism in cells treated with Ru-peptide conjugates. (a) Emission intensity of cells treated with Ru-p(HH), Ru-p(MH), or Ru-p(MM) (15 μM, 24 h) and irradiated with green light (520 nm, 13.1 J cm^–2) for different times: 0–1200 s, as determined by flow cytometry using a PC5.5 filter (ex/em = 488/650 ± 50 nm). (b) Intracellular ROS generation assay in normoxic (N) and hypoxic (H) U87MG cells according to FACS analysis using nonselective ROS probe CellROX Deep Red Reagent, after treatment with Ru-p(HH), Ru-p(MH), Ru-p(MM), cisplatin, Rose Bengal, or [Ru(Ph2phen)2Cl2] (labeled as Ru-Cl2) (15 μM, 24 h), in the dark and after light irradiation (515 nm, 13.1 J cm^–2). tBHP (250 μM, 1 h) was used as a positive control for ROS generation. Error bars: SEM, n = 2. (c) Slopes of the UV–vis absorption of AMDA (for ^1O2, blue bars) or emission intensity of DHE (for O2^•–, red bars) vs irradiation time (see Figures S26–S28) after being incubated with Ru-p(HH), Ru-p(MH), Ru-p(MM), Ru-Cl2, or Rose Bengal (20 μM) and irradiated with green light in Opti-MEM solution. (d) Percentage of alive (−/−), early apoptotic (−/+), late apoptotic (+/+) and necrotic (+/−) U87MG cells costained with Apopxin Deep Red Indicator and Nuclear Green DCS1 as quantified by flow cytometry, after treatment with Ru-p(HH), Ru-p(MH), Ru-p(MM), cisplatin or Rose Bengal in the dark (D) and after light irradiation (L, DLI = 24 h, 515 nm, 13.1 J cm^–2); drug concentration: 20 μM, DLI = 24 h).
Second, CellROX Deep Red, a nonspecific molecular probe for ROS formation, was used to quantify the photodynamic behaviors by each of the three complexes in U87MG cells,.[22] […]
The generation of ROS (reactive oxygen species) in U87MG cells was measured using a ROS deep red fluorescence indicator (Abcam, ab186029). […] The levels of intracellular ROS were then determined using a CytoFLEX flow cytometer using the APC-A (638 nm excitation, 660/10 nm emission) channel. […]

[2] = reference value; cited from earlier work
Description: Table 1 Photochemical Data for Ru-Peptide Conjugates | column: complex

[3] = not given; remark: listed apart in the source
[4] = not given; remark: listed apart in the source
U87MG cells [5] = test: 2D cytotoxicity assay, SRB end point, dark vs green light; type: cell-based, human; settings: normoxia (21% O2); for EC50: SRB at 96 h
Procedure: To test the in vitro phototoxicity of the three complexes toward 2D monolayer U87MG cells, a cell viability assay was undertaken as follows: the cells were seeded at t = 0, treated at t = 24 h, irradiated with green light (520 nm, 13.1 J cm^–2) at t = 48 h without refreshing the medium (drug-to-light interval = 24 h), further incubated in the dark for 48 h, and counted at t = 96 h with a sulforhodamine B (SRB) cell quantification end point assay.[45] Half-maximal effective concentrations (EC50 in μM), compared to untreated control, and photoindex (PI) values, defined as EC50,dark/ EC50,light, were calculated to characterize the toxicity and light activation of each Ru-peptide conjugate. […] However, a much stronger discrepancy appeared in the 2D toxicity data in hypoxic conditions (Table 2, Figure S22b). The phototherapeutic properties of Ru-p(HH) in the green light group were the poorest, leading to a PI of only 1.3. […] Ru-p(MH) stood somewhere between these values with a PI of 1.9 under hypoxia. […] The loss of activity of Ru-p(HH) under hypoxia is consistent with the hypothesis of a PDT pathway, while Ru-p(MM) keeping appreciable phototoxicity under hypoxia better fits the hypothesis of a PACT cell-killing mechanism.
U87MG cells (6000) were seeded in 96-well plates (Sarstedt, 83.3924), and each well contained 100 μL of Opti-MEM (Gibco complete medium 11058-021, supplemented with 2.5% v/v fetal calf serum (FCS), 0.2% v/v penicillin/streptomycin (P/S), and 1% v/v glutamine). They were then placed either in a normoxic (21% O2) or hypoxic (1.0% O2) incubator; 24 h later, different concentrations of Ru-p(HH), Ru-p(MH), or Ru-p(MM) dissolved in Opti-MEM (100 μL) were added to the wells in triplicate. For each complex, one dark and one light plate were involved. Each plate was further incubated in the dark for 24 h (DLI). After that, one plate was irradiated with green light (520 nm) for 20 min at 37 °C for normoxia (dose = 13.1 J cm^–2) or 30 min for hypoxia (dose = 13.0 J cm^–2), while the other plate was kept in the dark. The cells were further incubated for another 2 days in normoxic or hypoxic conditions, respectively. Finally, 100 μL of cold trichloroacetic acid (10% w/v) was added to each well to fix the cells, and all plates were then transferred to a 4 °C refrigerator for 48 h before an SRB cell quantification end point assay was performed.[45] All experiments were conducted in biologically independent triplicate.
Hypoxic cell models in vitro: all cells were incubated and passaged in a dark hypoxic incubator (1% O2) for at least 2 weeks before all hypoxia studies. Adding chemicals to the cells had to be performed in air; however, the cell-growing medium was kept in the hypoxia incubator for at least 2 days before the addition to hypoxic cells, and all hypoxic light irradiations were performed inside the hypoxic incubator set at 1.0% O2.

| Compound | intracellular ROS production, normoxia (U87MG cells [1]) | λem | λmax [3] | further results |
| --- | --- | --- | --- | --- |
| O=C([O-])c1c(Cl)c(Cl)c(Cl)c(Cl)c1-c1c2cc(I)c(=O)c(I)c-2oc2c(I)c([O-])c(I)cc12.[Na+].[Na+] [Rose Bengal] | high amount of ROS | – | – | – |
| [Cl][Ru][Cl].c1ccc(-c2ccccn2)nc1.c1ccc(-c2ccccn2)nc1.c1ccc(-c2ccccn2)nc1 [[Ru(bpy)3]Cl2] | – | – | – | ΦΔ ref, singlet oxygen quantum yield of the reference [2]: 73% |
| N.N.[Cl][Pt][Cl] [cisplatin] | barely showed any ROS formation | – | – | – |
| Ac-HRGDH-NH2 | – | 658 nm | 500 nm | – |
| Ac-MRGDH-NH2 | – | 700 nm | 465 nm | relative emission intensity compared to Ru-p(HH) [4]: 2% |
| Ac-MRGDM-NH2 | – | 700 nm | 400 nm | relative emission intensity compared to Ru-p(HH) [4]: 0.2% |
| [Ru(Ph2phen)2Cl2] | able to generate ROS in cells | – | – | PI, photoindex EC50,dark/EC50,light (U87MG cells [5]): 7.2; EC50 (U87MG cells [5]; 520 nm, 10.9 mW cm–2, 13.1 J cm–2, 20 min, DLI 24 h, n = 3, read-out: EC50, green light): 200 nM; EC50 (U87MG cells [5]; light dose 0, 24 h treatment, no wash, n = 3, read-out: EC50, dark): 1430 nM |
